Results as given in patent US10745365B2, “Luminogenic and fluorogenic compounds and methods to detect molecules or conditions” (Promega Corporation, priority 2005, dated 2020).

Key:
[1] = biological target: T1, QuantiLum Luciferase (firefly luciferase) (Photinus pyralis, UniProt P08659); experiment: Residual active QuantiLum luciferase after reaction with derivative (Steady Glo); format: biochemical
T1 construct: purchased Promega Corporation El 70
Experimental: (§1) After producing the solutions in Table 37, the volume of all reactions was adjusted to 990 μl with water. […] While the light reading was being taken, a 10 μl sample of the reaction was diluted to 500 μl with enzyme stop solution (cooled on ice to 4° C.) mixed and placed on ice and a second sample of 90 μl of reaction was added to 10 μl of Gel/HPLC stop and the tube placed at −20° C. A timer was started with the start of the first reaction and the start times of the remaining reactions was noted. At 15, 30, 45 and 60 minutes, each reaction was sampled as above and the light produced in the luminometer tubes was measured. At 7 and 22 minutes, the light produced in the luminometer tubes was read, but the reactions were not sampled.
After all samples were taken, 50 μl of the sample diluted into enzyme stop solution was mixed with 50 μl of Steady Glo Luciferase Reagent (Promega) and the light produced measured after incubating at room temperature for 10 minutes. This measured the active luciferase in the initial reaction.
as §1, with “40,” for “37,”, “−200” for “−20°”

[2] = biological target: T1, QuantiLum Luciferase (firefly luciferase); experiment: Light emission of QuantiLum firefly luciferase with luciferin derivatives; format: biochemical
Experimental: Gel and HPLC stop solution. Solid EDTA (free acid) was placed in a beaker with water and the pH of the solution adjusted to pH 7.0. The solution was then adjusted in volume to produce a solution 400 mM in EDTA.
Enzyme stop solution. A solution was prepared containing 20 mM Bis Tris, pH 6.5, 2 mM EDTA and 1 mg/ml bovine serum albumin.
Reaction buffer (2×). A solution was made containing 100 mM HEPES buffer, pH 8.0; 10 mM MgCl2.
DTT stock. Solid DTT (dithiothreitol) was dissolved in water and then adjusted to pH 8.0 with solid sodium hydroxide. The solution was then adjusted in volume to produce a solution 1 M in DTT.
as §1
as §1, with “40,” for “37,”, “−200” for “−20°”
The DTT, Coenzyme A, and QuantiLum stock solutions are the same as those described herein.
This solution was diluted 1:1 with water to produce an enzyme solution labeled “No addition.” This solution was diluted 1:1 with 400 mM DTT, pH 8.0 to produce a solution labeled+DTT. This solution was diluted 1: 1 with 4 mM Coenzyme A to produce a solution labeled+Co A. Finally, this solution was diluted 1: 1 with a solution having both 4 mM Coenzyme A and 400 mM DTT to produce a solution labeled+Co A & DTT.
50 μl samples of these solutions were placed in the wells of luminometer microtiter plates, row A to row G, respectively. Row H of the plates was given 50 μl of water.
Reactions in these plates were initiated by addition of 50 μl of solution containing QuantiLum luciferase using a 12 channel micropipette. The solutions added to the rows were: columns 1, 5, and 9—no addition solution; columns 2, 6, and 10—+Co A solution; columns 3, 7, and 11—+DTT solution, and; columns 4, 8, and 12—+Co A and DTT solution. After addition of the enzyme solution to the first row on every plate, a timer was started. After addition of the enzyme solution to the last row on each plate, the plate was sealed and read on a Veritas luminometer.

T1 sequence (P08659 whole entry): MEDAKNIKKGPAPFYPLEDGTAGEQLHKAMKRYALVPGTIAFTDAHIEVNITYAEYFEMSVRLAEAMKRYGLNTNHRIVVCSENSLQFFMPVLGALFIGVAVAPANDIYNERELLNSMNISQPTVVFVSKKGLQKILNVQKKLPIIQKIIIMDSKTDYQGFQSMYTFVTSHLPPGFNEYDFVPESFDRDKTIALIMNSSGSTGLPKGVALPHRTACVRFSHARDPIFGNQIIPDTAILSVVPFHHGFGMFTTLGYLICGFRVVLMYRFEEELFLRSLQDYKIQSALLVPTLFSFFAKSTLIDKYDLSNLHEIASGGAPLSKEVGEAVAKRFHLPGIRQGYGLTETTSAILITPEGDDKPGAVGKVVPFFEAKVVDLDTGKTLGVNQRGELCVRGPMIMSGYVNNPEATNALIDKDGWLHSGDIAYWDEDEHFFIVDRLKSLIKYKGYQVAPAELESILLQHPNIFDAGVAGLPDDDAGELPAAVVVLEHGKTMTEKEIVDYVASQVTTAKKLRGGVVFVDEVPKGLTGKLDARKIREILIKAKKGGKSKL

With `O=C(O)[C@H]1CSC(c2nc3ccc(OCc4ccccc4)cc3s2)=N1` [Luc’in BE] as the compound, how does the “Light reading from residual active enzyme at time 0 min” value ([1]; +Co A) read?
The value was 186.7.

What about the “Light reading from residual active enzyme at time 15 min” value ([1]; +Co A) of the same compound?
The value was 179.6.

What about the “Light reading from residual active enzyme at time 30 min” value ([1]; +Co A) of the same compound?
Its value is 179.4.

And the “Light reading from residual active enzyme at time 45 min” value ([1]; +Co A)?
The value was 157.9.

And the “Light reading from residual active enzyme at time 60 min” value ([1]; +Co A)?
Its value is 161.8.

What about the “Light reading from residual active enzyme at time 0 min” value ([1]; +DTT) of the same compound?
Its value is 194.

What about the “Light reading from residual active enzyme at time 15 min” value ([1]; +DTT) of the same compound?
Its value is 233.7.

And the “Light reading from residual active enzyme at time 30 min” value ([1]; +DTT)?
Its value is 224.7.

And the “Light reading from residual active enzyme at time 45 min” value ([1]; +DTT)?
Its value is 219.5.

What about the “Light reading from residual active enzyme at time 60 min” value ([1]; +DTT) of the same compound?
Its value is 226.4.

And the “Light reading from residual active enzyme at time 0 min” value ([1]; +EDTA)?
The value was 170.

And the “Light reading from residual active enzyme at time 15 min” value ([1]; +EDTA)?
Its value is 142.7.

What about the “Light reading from residual active enzyme at time 30 min” value ([1]; +EDTA) of the same compound?
The value was 140.4.

What about the “Light reading from residual active enzyme at time 45 min” value ([1]; +EDTA) of the same compound?
Its value is 141.7.

And the “Light reading from residual active enzyme at time 60 min” value ([1]; +EDTA)?
The value was 135.4.

And the “Light reading from residual active enzyme at time 0 min” value ([1]; No addition)?
The value was 129.7.

What about the “Light reading from residual active enzyme at time 15 min” value ([1]; No addition) of the same compound?
The value was 69.9.

What about the “Light reading from residual active enzyme at time 30 min” value ([1]; No addition) of the same compound?
The value was 47.31.

And the “Light reading from residual active enzyme at time 45 min” value ([1]; No addition)?
Its value is 37.94.

What about the “Light reading from residual active enzyme at time 60 min” value ([1]; No addition) of the same compound?
The value was 29.08.

And the “Light reading from residual active enzyme at time 0 min” value ([1]; w/o ATP)?
Its value is 168.3.

What about the “Light reading from residual active enzyme at time 15 min” value ([1]; w/o ATP) of the same compound?
Its value is 174.1.

What about the “Light reading from residual active enzyme at time 30 min” value ([1]; w/o ATP) of the same compound?
Its value is 171.7.

And the “Light reading from residual active enzyme at time 45 min” value ([1]; w/o ATP)?
The value was 172.9.

And the “Light reading from residual active enzyme at time 60 min” value ([1]; w/o ATP)?
The value was 164.

What about the “Light reading at time 0 min” value ([2]; +Co A) of the same compound?
Its value is 139.5.

What about the “Light reading at time 7 min” value ([2]; +Co A) of the same compound?
The value was 11.92.

What about the “Light reading at time 15 min” value ([2]; +Co A) of the same compound?
The value was 10.99.

And the “Light reading at time 22 min” value ([2]; +Co A)?
The value was 9.941.

And the “Light reading at time 30 min” value ([2]; +Co A)?
The value was 7.379.

What about the “Light reading at time 45 min” value ([2]; +Co A) of the same compound?
The value was 7.284.

What about the “Light reading at time 60 min” value ([2]; +Co A) of the same compound?
Its value is 6.433.

And the “Light reading at time 0 min” value ([2]; +DTT)?
The value was 948.

And the “Light reading at time 7 min” value ([2]; +DTT)?
The value was 532.8.

What about the “Light reading at time 15 min” value ([2]; +DTT) of the same compound?
Its value is 417.

And the “Light reading at time 22 min” value ([2]; +DTT)?
Its value is 369.5.

What about the “Light reading at time 30 min” value ([2]; +DTT) of the same compound?
Its value is 331.6.

And the “Light reading at time 45 min” value ([2]; +DTT)?
Its value is 273.5.

And the “Light reading at time 60 min” value ([2]; +DTT)?
Its value is 226.9.

What about the “Light reading at time 0 min” value ([2]; +EDTA) of the same compound?
The value was 1.004.

And the “Light reading at time 7 min” value ([2]; +EDTA)?
Its value is 0.771.

What about the “Light reading at time 15 min” value ([2]; +EDTA) of the same compound?
The value was 0.639.

And the “Light reading at time 22 min” value ([2]; +EDTA)?
Its value is 0.562.

What about the “Light reading at time 30 min” value ([2]; +EDTA) of the same compound?
Its value is 0.461.

And the “Light reading at time 45 min” value ([2]; +EDTA)?
The value was 0.425.

And the “Light reading at time 60 min” value ([2]; +EDTA)?
Its value is 0.354.

And the “Light reading at time 0 min” value ([2]; No addition)?
Its value is 135.2.

And the “Light reading at time 7 min” value ([2]; No addition)?
Its value is 22.61.

What about the “Light reading at time 15 min” value ([2]; No addition) of the same compound?
Its value is 12.79.

What about the “Light reading at time 22 min” value ([2]; No addition) of the same compound?
The value was 9.256.

What about the “Light reading at time 30 min” value ([2]; No addition) of the same compound?
Its value is 6.928.

What about the “Light reading at time 45 min” value ([2]; No addition) of the same compound?
The value was 4.879.

And the “Light reading at time 60 min” value ([2]; No addition)?
The value was 3.311.

What about the “Light reading at time 0 min” value ([2]; w/o ATP) of the same compound?
The value was 0.015.

What about the “Light reading at time 7 min” value ([2]; w/o ATP) of the same compound?
Its value is 0.

And the “Light reading at time 15 min” value ([2]; w/o ATP)?
Its value is 0.008.

And the “Light reading at time 22 min” value ([2]; w/o ATP)?
The value was 0.005.

What about the “Light reading at time 30 min” value ([2]; w/o ATP) of the same compound?
The value was 0.

What about the “Light reading at time 45 min” value ([2]; w/o ATP) of the same compound?
Its value is 0.

And the “Light reading at time 60 min” value ([2]; w/o ATP)?
Its value is 0.01.
